Source: US20250186321A1, “FORMULATION USING AMINO ACID AND CARBOXYLIC ACID, ORGANIC SALT, AND COMPOSITION COMPRISING SAME AND USE THEREOF” (MIYOSHI OIL & FAT CO., LTD., priority 2021, published 2025)

Test: Appearance of formulation (state at 25° C.)
Assay type: physicochemical
Description: Formulations 1 to 427 shown in Tables 1A to 1D were prepared by the above-described method using the components (A) and (B) at the compounding molar ratios shown in the tables, and their states at 25° C. were observed.

[1] = 25° C., components (A) and (B) at the compounding molar ratio shown
[2] = Tables 1C-1 to 1D, compounding molar ratio (Component (A):Component (B)) 1:1

For `CC(C)C[C@H](N)C(=O)O.O=C(O)C(O)C(O)C(=O)O` (centres unmarked) [Formulation 217], the “state at 25° C.” value [1] was “Solid”.

In the case of `CC(C)C[C@H](N)C(=O)O.O=C(O)c1ccccc1` [Formulation 218], the “state at 25° C.” value [1] is reported as “Solid”.

For `CC(C)C[C@H](N)C(=O)O.O=C1O[C@H]([C@@H](O)CO)C(O)=C1O` [Formulation 219], the “state at 25° C.” value [1] was “Solid”.

In the case of `CC[C@H](C)[C@H](N)C(=O)O.O=CO` [Formulation 221], the “state at 25° C.” value [1] is reported as “Solid”.

For `CC(=O)O.CC[C@H](C)[C@H](N)C(=O)O` [Formulation 222], the “state at 25° C.” value [1] was “Solid”.

With `CCC(=O)O.CC[C@H](C)[C@H](N)C(=O)O` [Formulation 223] the “state at 25° C.” value [1] was “Solid”.

In the case of `CCCCCC(=O)O.CC[C@H](C)[C@H](N)C(=O)O` [Formulation 224], the “state at 25° C.” value [1] is reported as “Solid”.

For `CCCC(=O)O.CC[C@H](C)[C@H](N)C(=O)O` [Formulation 225], the “state at 25° C.” value [1] was “Solid”.

With `CC[C@H](C)[C@H](N)C(=O)O.O=C(O)[C@H](O)[C@@H](O)[C@H](O)[C@H](O)CO` [Formulation 226] the “state at 25° C.” value [1] was “Solid”.

With `CC(O)C(=O)O.CC[C@H](C)[C@H](N)C(=O)O` [Formulation 227] the “state at 25° C.” value [1] was “Solid”.

With `CC[C@H](C)[C@H](N)C(=O)O.O=C(O)CCCCC(=O)O` [Formulation 228] the “state at 25° C.” value [1] was “Solid”.

With `CC[C@H](C)[C@H](N)C(=O)O.O=C(O)CCC(=O)O` [Formulation 229] the “state at 25° C.” value [1] was “Solid”.

With `CC[C@H](C)[C@H](N)C(=O)O.N[C@@H](CCC(=O)O)C(=O)O` [Formulation 230] the “state at 25° C.” value [1] was “Solid”.

In the case of `CC[C@H](C)[C@H](N)C(=O)O.O=C(O)/C=C/C(=O)O` [Formulation 231], the “state at 25° C.” value [1] is reported as “Solid”.

With `CC[C@H](C)[C@H](N)C(=O)O.O=C(O)C[C@H](O)C(=O)O` [Formulation 232] the “state at 25° C.” value [1] was “Solid”.

For `CC[C@H](C)[C@H](N)C(=O)O.O=C(O)CC(O)(CC(=O)O)C(=O)O` [Formulation 233], the “state at 25° C.” value [1] was “Solid”.

In the case of `CC[C@H](C)[C@H](N)C(=O)O.O=C(O)C(O)C(O)C(=O)O` (centres unmarked) [Formulation 234], the “state at 25° C.” value [1] is reported as “Solid”.

In the case of `CC[C@H](C)[C@H](N)C(=O)O.O=C(O)c1ccccc1` [Formulation 235], the “state at 25° C.” value [1] is reported as “Solid”.

With `CC[C@H](C)[C@H](N)C(=O)O.O=C1O[C@H]([C@@H](O)CO)C(O)=C1O` [Formulation 236] the “state at 25° C.” value [1] was “Solid”.

For `N[C@@H](CO)C(=O)O.O=CO` [Formulation 238], the “state at 25° C.” value [1] was “Solid”.

In the case of `CC(=O)O.N[C@@H](CO)C(=O)O` [Formulation 239], the “state at 25° C.” value [1] is reported as “Solid”.

In the case of `CCC(=O)O.N[C@@H](CO)C(=O)O` [Formulation 240], the “state at 25° C.” value [1] is reported as “Solid”.

For `CCCCCC(=O)O.N[C@@H](CO)C(=O)O` [Formulation 241], the “state at 25° C.” value [1] was “Solid”.

For `CCCC(=O)O.N[C@@H](CO)C(=O)O` [Formulation 242], the “state at 25° C.” value [1] was “Solid”.

In the case of `CC(O)C(=O)O.N[C@@H](CO)C(=O)O` [Formulation 244], the “state at 25° C.” value [1] is reported as “Solid”.

With `N[C@@H](CO)C(=O)O.O=C(O)CCCCC(=O)O` [Formulation 245] the “state at 25° C.” value [1] was “Solid”.

For `N[C@@H](CO)C(=O)O.O=C(O)CCC(=O)O` [Formulation 246], the “state at 25° C.” value [1] was “Solid”.

In the case of `N[C@@H](CCC(=O)O)C(=O)O.N[C@@H](CO)C(=O)O` [Formulation 247], the “state at 25° C.” value [1] is reported as “Solid”.

With `N[C@@H](CO)C(=O)O.O=C(O)/C=C/C(=O)O` [Formulation 248] the “state at 25° C.” value [1] was “Solid”.

In the case of `N[C@@H](CO)C(=O)O.O=C(O)C(O)C(O)C(=O)O` (centres unmarked) [Formulation 251], the “state at 25° C.” value [1] is reported as “Solid”.

For `N[C@@H](CO)C(=O)O.O=C(O)c1ccccc1` [Formulation 252], the “state at 25° C.” value [1] was “Solid”.

For `N[C@@H](CO)C(=O)O.O=C1O[C@H]([C@@H](O)CO)C(O)=C1O` [Formulation 253], the “state at 25° C.” value [1] was “Solid”.

In the case of `N[C@@H](CO)C(=O)O.O=C1O[C@H]([C@H](O)CO)C(O)=C1O` [Formulation 254], the “state at 25° C.” value [1] is reported as “Solid”.

For `C[C@@H](O)[C@H](N)C(=O)O.O=CO` [Formulation 255], the “state at 25° C.” value [1] was “Solid”.

For `CC(=O)O.C[C@@H](O)[C@H](N)C(=O)O` [Formulation 256], the “state at 25° C.” value [1] was “Solid”.

For `CCC(=O)O.C[C@@H](O)[C@H](N)C(=O)O` [Formulation 257], the “state at 25° C.” value [1] was “Solid”.

With `CCCCCC(=O)O.C[C@@H](O)[C@H](N)C(=O)O` [Formulation 258] the “state at 25° C.” value [1] was “Solid”.

In the case of `CCCC(=O)O.C[C@@H](O)[C@H](N)C(=O)O` [Formulation 259], the “state at 25° C.” value [1] is reported as “Solid”.

With `C[C@@H](O)[C@H](N)C(=O)O.O=C(O)[C@H](O)[C@@H](O)[C@H](O)[C@H](O)CO` [Formulation 260] the “state at 25° C.” value [1] was “Solid”.

In the case of `CC(O)C(=O)O.C[C@@H](O)[C@H](N)C(=O)O` [Formulation 261], the “state at 25° C.” value [1] is reported as “Solid”.

For `C[C@@H](O)[C@H](N)C(=O)O.O=C(O)CCCCC(=O)O` [Formulation 262], the “state at 25° C.” value [1] was “Solid”.

For `C[C@@H](O)[C@H](N)C(=O)O.O=C(O)CCC(=O)O` [Formulation 263], the “state at 25° C.” value [1] was “Solid”.

With `C[C@@H](O)[C@H](N)C(=O)O.N[C@@H](CCC(=O)O)C(=O)O` [Formulation 264] the “state at 25° C.” value [1] was “Solid”.

For `C[C@@H](O)[C@H](N)C(=O)O.O=C(O)/C=C/C(=O)O` [Formulation 265], the “state at 25° C.” value [1] was “Solid”.

For `C[C@@H](O)[C@H](N)C(=O)O.O=C(O)C[C@H](O)C(=O)O` [Formulation 266], the “state at 25° C.” value [1] was “Solid”.

For `C[C@@H](O)[C@H](N)C(=O)O.O=C(O)CC(O)(CC(=O)O)C(=O)O` [Formulation 267], the “state at 25° C.” value [1] was “Solid”.

For `C[C@@H](O)[C@H](N)C(=O)O.O=C(O)C(O)C(O)C(=O)O` (centres unmarked) [Formulation 268], the “state at 25° C.” value [1] was “Solid”.

With `C[C@@H](O)[C@H](N)C(=O)O.O=C(O)c1ccccc1` [Formulation 269] the “state at 25° C.” value [1] was “Solid”.

With `C[C@@H](O)[C@H](N)C(=O)O.O=C1O[C@H]([C@@H](O)CO)C(O)=C1O` [Formulation 270] the “state at 25° C.” value [1] was “Solid”.

In the case of `C[C@@H](O)[C@H](N)C(=O)O.O=C1O[C@H]([C@H](O)CO)C(O)=C1O` [Formulation 271], the “state at 25° C.” value [1] is reported as “Solid”.

With `N[C@@H](CS)C(=O)O.O=CO` [Formulation 306] the “state at 25° C.” value [2] was “Solid”.

In the case of `CC(=O)O.N[C@@H](CS)C(=O)O` [Formulation 307], the “state at 25° C.” value [2] is reported as “Solid”.

With `CCC(=O)O.N[C@@H](CS)C(=O)O` [Formulation 308] the “state at 25° C.” value [2] was “Solid”.

For `CCCCCC(=O)O.N[C@@H](CS)C(=O)O` [Formulation 309], the “state at 25° C.” value [2] was “Solid”.

With `CCCC(=O)O.N[C@@H](CS)C(=O)O` [Formulation 310] the “state at 25° C.” value [2] was “Solid”.

For `N[C@@H](CS)C(=O)O.O=C(O)[C@H](O)[C@@H](O)[C@H](O)[C@H](O)CO` [Formulation 311], the “state at 25° C.” value [2] was “Solid”.

For `CC(O)C(=O)O.N[C@@H](CS)C(=O)O` [Formulation 312], the “state at 25° C.” value [2] was “Solid”.

In the case of `N[C@@H](CS)C(=O)O.O=C(O)CCCCC(=O)O` [Formulation 313], the “state at 25° C.” value [2] is reported as “Solid”.

For `N[C@@H](CS)C(=O)O.O=C(O)CCC(=O)O` [Formulation 314], the “state at 25° C.” value [2] was “Solid”.

For `N[C@@H](CCC(=O)O)C(=O)O.N[C@@H](CS)C(=O)O` [Formulation 315], the “state at 25° C.” value [2] was “Solid”.

With `N[C@@H](CS)C(=O)O.O=C(O)/C=C/C(=O)O` [Formulation 316] the “state at 25° C.” value [2] was “Solid”.

For `N[C@@H](CS)C(=O)O.O=C(O)C[C@H](O)C(=O)O` [Formulation 317], the “state at 25° C.” value [2] was “Solid”.
